Results taken from patent US12053480B2, “Methods and pharmaceutical compositions for treating peripheral demyelinating diseases” (INSERM (INSTITUT NATIONAL DE LA SANTE ET DE LA RECHERCHE …, priority 2015, dated 2024).

Experiments:
phospho-c-jun = assay: Immunohistochemistry of phospho-c-jun in mSC of CMT1A rats; format: in vivo, rat; settings: compared to vehicle
Experimental: The dissected nerve was washed in L15 medium, fixed in Zamboni's fixative (Stefanini et al., 1967^4) for 10 min at room temperature, washed in PBS, and incubated in successive glycerol baths (15, 45, 60, 66% in PBS) for 18 to 24 h each before freezing at −20° C. The nerves were cut in small pieces in 66% glycerol and the perineurium sheet removed. Small bundles of fibers were teased in double-distilled water on Superfrost slides, dried overnight at room temperature, and the slides stored at −20° C. For immunostaining, the teased fibers were incubated for 1 h at room temperature in blocking solution (10% goat serum, 0.2% TritonX100, and 0.01% sodium azide in PBS). […]
While demyelinating diabetes peripheral neuropathy is a commonly acquired disease, demyelination is also the characteristic feature of a large number of inherited diseases called Charcot-Marie-Tooth diseases (CMT). […] Twelve weeks old CMT1A rats were daily treated with TRO19622 for 15 or 30 days and one day or two months after treatment, we analyzed MAPK demyelination pathways by western blot. […] Then we analyzed phospho-c-jun activation in mSC using immunohistochemistry. […] Next, we measured Schwann cell demyelination and g-ratio by toluidine blue staining on semi-thin sciatic nerve sections and on thin sections using electron microscopy.

diabetic (db/db) mice = assay: Sciatic nerve myelin morphometry (toluidine blue, TEM) in diabetic mice; format: in vivo, mouse; settings: diabetic mice treated daily for one month
Experimental: Sciatic nerves of 20 and 28 weeks old diabetic mice or 16 and 24 weeks old CMT1A rats treated with TRO19622 drug or PBS were fixed for 20 min in situ with 4% PFA and 2.5% glutaraldehyde, in 0.1 M phosphate buffer (pH7.3). Then nerves were removed and postfixed overnight in the same buffer.
After washing 30 min in 0.2M PBS phosphate buffer, the nerves were incubated with 2% osmic acid in 0.1M phosphate buffer for 90 minutes at room temperature. Then, samples were washed in 0.2M PBS phosphate buffer, dehydrated using ethanol gradient solutions and embedded in epoxy resin. For electron microscopy of sciatic nerves, ultrathin (70 nm) cross-sections were cut and stained with 1% uranylacetate solution and lead-citrate and analyzed using a HITACHI H7100 electron microscope at the ‘Centre des Resources en Imagerie Cellulaire’ (CRIC) (for further details see Cotter et al., 2010^9). […] G-ratio was determined using GRatioCalculator plugin of Image J. At less 200 fibers per animal were analysed.
To go further 16-weeks-old diabetic and control mice were treated daily with vehicle or TRO19622 for one month. One day and two months after drug treatment, myelin was evaluated in the sciatic nerve using toluidine blue staining and transmission electron microscopy (TEM) to measure the g-ratio (axon diameter on total myelinated fiber diameter).

With `CC(C)CCC[C@@H](C)[C@H]1CC[C@H]2[C@@H]3CCC4=C/C(=N\O)CC[C@]4(C)[C@H]3CC[C@]12C` [TRO19622, (NZ)—N-[(8S,9S,10R,13R,14S,17R)-10,13-dimethyl-17-[(2R)-6-methylheptan-2-yl]-1,2,6,7,8,9,11,12,14,15,16,17-dodecahydrocyclopenta[a]phenanthren-3-ylidene]hydroxylamine] the “phospho-c-jun amount in the mSC nucleus” value (phospho-c-jun) was “strongly reduced”, the “axon number and diameter” value (diabetic (db/db) mice) was “No differences” and the g-ratio (diabetic (db/db) mice; compared to vehicle) was “significant decrease”.
